The MIC is the least concentration at which growth counts as inhibited. High values mean a need for much substance, low ones inhibition by little substance.

≈ marks a conversion by molar mass, not a printed value. Some results are limits rather than exact numbers.

Common to all, as to format: functional
One assay concerns Pseudomonas aeruginosa. The experiment in a line: Antimicrobial activity against Pseudomonas aeruginosa.
The subject of a further assay is Serratia marcescens. Briefly: Antimicrobial activity against Serratia marcescens.
For the next assay, the system named is Escherichia coli. The experiment in a line: Antibacterial activity against Escherichia coli.
For another assay, the system named is Bacillus subtilis. Briefly: Antibacterial activity against Bacillus subtilis.
In another assay the test system is Micrococcus luteus. Briefly: Antimicrobial activity against Sarcina lutea.
The subject of assay [1] is Staphylococcus saprophyticus. Briefly: Antibacterial activity against Staphylococcus saprophyticus.
The test system of another assay is Cyberlindnera jadinii. The experiment in a line: Antimicrobial activity against Candida utilis. To be noted: Williopsis jadinii.
A further assay deals with Candida albicans. The experiment in a line: Antimicrobial activity against Candida albicans.
The subject of the next assay is Candida boidinii. The experiment in a line: Antimicrobial activity against Candida boidinii.
Another assay concerns Komagataella pastoris. Briefly: Antimicrobial activity against Pichia pastoris.
The subject of the next assay is Papiliotrema laurentii. Briefly: Antifungal activity against Cryptococcus laurentii.
The next assay relates to Lipomyces lipofer. Briefly: Antimicrobial activity against Lipomyces lipofer.
Assay [2] can be described thus: Antimicrobial activity against Hansenula sp. Particulars: Pichia.
A further assay relates to Saccharomyces cerevisiae. Briefly: Antimicrobial activity against Saccharomyces cerevisiae.
The subject of the next assay is Rhodotorula mucilaginosa. The experiment in a line: Antimicrobial activity against Rhodotorula rubra.
The test system of the next assay is Aspergillus niger. Briefly: Antifungal activity against Aspergillus niger.

In the case of `CC(C)(C)c1cc(N)c(O)c(C(C)(C)C)c1`, the MIC against Pseudomonas aeruginosa was over 50 µg/mL; against Serratia marcescens it was over 50 µg/mL; in the assay on Escherichia coli it was over 50 µg/mL; in the assay on Bacillus subtilis it was 25 µg/mL (≈ 113 µM); with Micrococcus luteus it was 12.5 µg/mL (≈ 56.5 µM); in assay [1], 12.5 µg/mL (≈ 56.5 µM). For the same compound, the MIC in the assay with Cyberlindnera jadinii is over 50 µg/mL; against Candida albicans, over 50 µg/mL; in the assay on Candida boidinii, over 50 µg/mL; against Komagataella pastoris, 6.25 µg/mL (≈ 28.2 µM); with Papiliotrema laurentii, 6.25 µg/mL (≈ 28.2 µM); with Lipomyces lipofer, 6.25 µg/mL (≈ 28.2 µM). Further, the MIC in assay [2] is 6.25 µg/mL (≈ 28.2 µM); with Saccharomyces cerevisiae, 6.25 µg/mL (≈ 28.2 µM); against Rhodotorula mucilaginosa, 50 µg/mL (≈ 226 µM); in the assay on Aspergillus niger, over 50 µg/mL.
Regarding `Nc1ccccc1O` [QUESTIOMYCIN B], the MIC is over 50 µg/mL with Pseudomonas aeruginosa; over 50 µg/mL with Serratia marcescens; over 50 µg/mL against Escherichia coli; over 25 µg/mL against Bacillus subtilis; over 50 µg/mL in assay [1]; over 50 µg/mL against Cyberlindnera jadinii. Besides, the MIC (in the assay with Candida albicans; in the assay on Candida boidinii; in the assay on Komagataella pastoris; in assay [2]; against Saccharomyces cerevisiae; with Aspergillus niger) was over 50 µg/mL in each case.
For `CC(C)(C)c1cc(Nc2ccccc2)c(O)c(C(C)(C)C)c1`, the MIC (in the assay on Pseudomonas aeruginosa; in the assay on Serratia marcescens; with Escherichia coli; in the assay on Bacillus subtilis; against Micrococcus luteus; in [1]) was over 50 µg/mL throughout. The MIC in the assay on Cyberlindnera jadinii, in the assay on Candida albicans, with Candida boidinii, with Komagataella pastoris, against Papiliotrema laurentii and against Lipomyces lipofer was over 50 µg/mL in each case. The MIC (in [2]; in the assay with Saccharomyces cerevisiae; against Rhodotorula mucilaginosa; in the assay on Aspergillus niger) was over 50 µg/mL in each case.

Values taken from ChEMBL document CHEMBL1137281, “Synthesis and biological evaluation of copper (II) complexes of sterically hindered o-aminophenol derivatives as antimicrobial agents” (2006).
